Legend:
[1] = tested on: RIF-resistant Mtb strain; type: cell-based; conditions: 16 hr drug treatment, MOI=1, 4 hr post-infection, RT-PCR
[2] = tested on: EMB resistant Mtb strain; type: cell-based; conditions: 16 hr drug treatment, MOI=1, 4 hr post-infection, RT-PCR

CC[C@@H](CO)NCCN[C@@H](CC)CO [EMB, Ethambutol]
Reduction in SML generation compared to the untreated control [1]: approximately 10 fold
SML generation after drug treatment [2]: not decreased

Reference: patent US8501400B2, “Methods and compositions for determining the pathogenic status of infectious agents” (priority 2007, dated 2013)
